# Reference: ChEMBL document CHEMBL4038293, “Synthesis and SAR studies of 3,6-disubstituted indazole derivatives as potent hepcidin production inhibitors” (Bioorg Med Chem Lett, 2017)
# Active and inactive are the calls of the source. No cut-off for these calls is given here.
# Tested on: not listed separately
# Assay: AUC in C57BL/6J mouse at 30 mg/kg, ip
# Assay type: ADME, organism-based
# Details: in vivo
row,AUC [µg·h/mL],Structure (SMILES)
1,6.93,O=C(Nc1n[nH]c2cc(-c3ccc(O)cc3)ccc12)c1ccc(OCCN2CCOCC2)cc1

# Tested on: not listed separately
# Assay: Lipophilicity, log D of the compound
# Assay type: physicochemical
# Details: octanol/water
row,logD,Structure (SMILES)
1,3.4,O=C(Nc1n[nH]c2cc(-c3ccc(O)cc3)ccc12)c1ccc(OCCN2CCOCC2)cc1

# Tested on: not listed separately
# Assay: Cmax in C57BL/6J mouse at 30 mg/kg, ip
# Assay type: ADME, organism-based
# Parameters: dose 30 mg/kg, route intraperitoneal
# Details: in vivo
row,Cmax [µg/mL],Structure (SMILES)
1,2.64,O=C(Nc1n[nH]c2cc(-c3ccc(O)cc3)ccc12)c1ccc(OCCN2CCOCC2)cc1

# Tested on: Mus musculus
# Assay: Anti-inflammatory activity in C57BL/6J mouse assessed as reduction in IL-6 induced serum hepcidin level at 30 mg/kg, ip pretreated for 30 mins followed by IL-6 challenge measured after 4 hrs
# Assay type: functional, organism-based
# Details: not given
row,Structure (SMILES),Activity
1,O=C(Nc1n[nH]c2cc(-c3ccc(O)cc3)ccc12)c1ccc(OCCN2CCOCC2)cc1,Active

# Tested on: not listed separately
# Assay: Tmax in C57BL/6J mouse at 30 mg/kg, ip
# Assay type: ADME, organism-based
# Details: in vivo
row,Tmax [h],Structure (SMILES)
1,1.33,O=C(Nc1n[nH]c2cc(-c3ccc(O)cc3)ccc12)c1ccc(OCCN2CCOCC2)cc1

# Tested on: not listed separately
# Assay: Metabolic stability in mouse liver microsomes assessed as compound remaining at 0.5 mg/mL after 0.5 hrs
# Assay type: ADME, microsome
# Details: read-out: Stability
row,remaining at 0.5 h [%],Structure (SMILES)
1,89,O=C(Nc1n[nH]c2cc(-c3ccc(O)cc3)ccc12)c1ccc(OCCN2CCOCC2)cc1

# Organism: Homo sapiens
# Assay: Inhibition of BMP6/hemojuvelin signalling pathway in human HepG2 cells assessed as reduction in hepcidin mRNA expression at 30 uM
# Assay type: cell-based
# Details: not given
row,Structure (SMILES),inhibition [%]
1,O=C(Nc1n[nH]c2cc(-c3ccccc3)ccc12)C1CC1,23
2,O=C(Nc1n[nH]c2cccc(-c3ccccc3)c12)C1CC1,8
3,O=C(Nc1n[nH]c2ccc(-c3ccccc3)cc12)C1CC1,-4

# Tested on: not listed separately
# Assay: Inhibition of BMP6/hemojuvelin signalling pathway in human HepG2 cells assessed as reduction in hepcidin mRNA expression
# Assay type: cell-based
# Details: not given
row,Structure (SMILES),IC50 [µM]
1,O=C(Nc1n[nH]c2ccc(-c3ccc4c(c3)CNC4)cc12)C1CC1,3.1
2,O=C(Nc1n[nH]c2cc(Cc3ccc(O)cc3)ccc12)C1CC1,> 30
3,O=C(Nc1n[nH]c2cc(C3=CCC(O)CC3)ccc12)C1CC1 (centres undefined),> 30
4,O=C(Nc1n[nH]c2cc(-c3ccc(O)cc3)ccc12)c1ccc(OCCN2CCOCC2)cc1,0.13
5,O=C(Nc1n[nH]c2cc(-c3ccc(O)cc3)ccc12)c1ccc(OCCN2CCCCC2)cc1,0.12
6,O=C(Nc1n[nH]c2cc(-c3ccccc3O)ccc12)C1CC1,> 30
7,O=C(Nc1n[nH]c2cc(-c3cccc(O)c3)ccc12)C1CC1,4.9
8,O=S(=O)(Nc1n[nH]c2cc(-c3ccc(O)cc3)ccc12)C1CC1,> 10
9,O=C(Nc1n[nH]c2cc(-c3ccc(CO)cc3)ccc12)C1CC1,1.4
10,O=C(Nc1n[nH]c2cc(-c3ccc(O)cc3)ccc12)NC1CC1,0.94
11,Nc1ccc(-c2ccc3c(NC(=O)C4CC4)n[nH]c3c2)cc1,4.5
12,CN(C)c1ccc(C(=O)Nc2n[nH]c3cc(-c4ccc(O)cc4)ccc23)cc1,0.33
13,COc1cccc(C(=O)Nc2n[nH]c3cc(-c4ccc(O)cc4)ccc23)c1,0.7
14,CC(=O)Nc1n[nH]c2cc(-c3ccc(O)cc3)ccc12,1.1

# Continued, values first:
row,IC50 [µM],Structure (SMILES)
1,0.4,O=C(Nc1n[nH]c2cc(-c3ccc(O)cc3)ccc12)C1CC1
2,1,Nc1n[nH]c2cc(-c3ccc(O)cc3)ccc12
3,> 30,CS(=O)(=O)Nc1ccc(-c2ccc3c(NC(=O)C4CC4)n[nH]c3c2)cc1
4,1.6,Oc1ccc(-c2ccc3c(NCC4CC4)n[nH]c3c2)cc1
5,> 30,O=C(Nc1[nH]nc2cc(-c3ccc(O)nc3)ccc12)C1CC1
6,0.16,CN(C)CCOc1ccc(C(=O)Nc2n[nH]c3cc(-c4ccc(O)cc4)ccc23)cc1
7,0.47,O=C(Nc1n[nH]c2cc(-c3ccc(O)cc3)ccc12)c1ccccc1
8,0.085,CN1CCN(c2ccc(C(=O)Nc3n[nH]c4cc(-c5ccc(O)cc5)ccc34)cc2)CC1
9,1.1,COC(=O)c1ccc(C(=O)Nc2n[nH]c3cc(-c4ccc(O)cc4)ccc23)cc1
10,0.93,O=C(Nc1n[nH]c2cc(-c3ccc(O)cc3)ccc12)C1CCCCC1
11,> 10,O=C(O)c1ccc(-c2ccc3c(NC(=O)C4CC4)n[nH]c3c2)cc1
12,> 3,Oc1ccc(-c2ccc3cn[nH]c3c2)cc1
13,0.98,O=C(Nc1n[nH]c2cc(-c3ccc(O)cc3)ccc12)c1ccc(Cl)cc1
14,> 30,COc1ccccc1C(=O)Nc1n[nH]c2cc(-c3ccc(O)cc3)ccc12
15,4.2,O=C(NC1CC1)c1n[nH]c2cc(-c3ccc(O)cc3)ccc12
16,0.42,COc1ccc(C(=O)Nc2n[nH]c3cc(-c4ccc(O)cc4)ccc23)cc1
